Test results published in patent US12077503B2, “Substituted cyclic amides and their use as herbicides” (FMC CORPORATION, priority 2015, dated 2024).

Experiments:
Type in all cases: in vivo
Kochia (Kochia scoparia) [1] = assay: Test A preemergence; details: Bassia scoparia, pre-emergence, 240 h, 0 to 100 scale where 0 is no effect and 100 is complete control, read-out: Kochia plant response rating; for pest or weed control at 31 g/ha: 31 g ai/ha, Preemergence; for pest or weed control at 125 g/ha: 125 g ai/ha, preemergence
How it was run: (§1)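 Each rating is a visual injury score from 0 to 100 given about 10 d after treatment, judged against untreated controls kept alongside in the greenhouse. In loam soil–sand blend, seeds got a preemergence directed soil spray, while postemergence plants were 2 to 10 cm tall at spraying.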

[2] = tested on: barnyardgrass (Echinochloa crus-galli); assay: Test A preemergence; details: Echinochloa crus-galli, pre-emergence, 240 h, 0 to 100 scale where 0 is no effect and 100 is complete control, read-out: Barnyardgrass plant response rating; for pest or weed control at 31 g/ha: 31 g ai/ha, Preemergence; for pest or weed control at 125 g/ha: 125 g ai/ha, preemergence
How it was run: as §1

[3] = tested on: giant foxtail (Setaria faberii); assay: Test A preemergence; details: Setaria faberi, pre-emergence, 240 h, 0 to 100 scale where 0 is no effect and 100 is complete control, read-out: Foxtail, Giant plant response rating; for pest or weed control at 31 g/ha: 31 g ai/ha, Preemergence; for pest or weed control at 125 g/ha: 125 g ai/ha, preemergence
How it was run: as §1

[4] = tested on: pigweed (Amaranthus retroflexus); assay: Test A preemergence; details: Amaranthus retroflexus, pre-emergence, 240 h, 0 to 100 scale where 0 is no effect and 100 is complete control, read-out: Pigweed plant response rating; for pest or weed control at 31 g/ha: 31 g ai/ha, Preemergence; for pest or weed control at 125 g/ha: 125 g ai/ha, preemergence
[5] = tested on: ragweed (common ragweed, Ambrosia elatior); assay: Test A preemergence; details: Ambrosia artemisiifolia, pre-emergence, 240 h, 0 to 100 scale where 0 is no effect and 100 is complete control, read-out: Ragweed plant response rating; for pest or weed control at 31 g/ha: 31 g ai/ha, Preemergence; for pest or weed control at 125 g/ha: 125 g ai/ha, preemergence
How it was run: as §1

[6] = tested on: ryegrass, Italian (Italian ryegrass, Lolium multiflorum); assay: Test A preemergence; details: Lolium multiflorum, pre-emergence, 240 h, 0 to 100 scale where 0 is no effect and 100 is complete control, read-out: Ryegrass, Italian plant response rating; for pest or weed control at 31 g/ha: 31 g ai/ha, Preemergence; for pest or weed control at 125 g/ha: 125 g ai/ha, preemergence
How it was run: as §1

[7] = tested on: Galium (catchweed bedstraw, Galium aparine); assay: Test A postemergence; details: Galium, post-emergence, 240 h; for pest or weed control at 125 g/ha: 125 g ai/ha, postemergence, visual injury vs untreated controls after approx. 10 d, 0 = no effect, 100 = complete control, read-out: Galium plant response rating (0 to 100 scale); for pest or weed control at 31 g/ha: Postemergence, 31 g ai/ha, visual injury after approx. 10 d, 0 to 100 scale, 0 no effect, 100 complete control, read-out: Plant response rating, Galium
How it was run: as §1

Kochia (Kochia scoparia) [8] = assay: Test A postemergence; details: Bassia scoparia, post-emergence, 240 h; for pest or weed control at 125 g/ha: 125 g ai/ha, postemergence, visual injury vs untreated controls after approx. 10 d, 0 = no effect, 100 = complete control, read-out: Kochia plant response rating (0 to 100 scale); for pest or weed control at 31 g/ha: Postemergence, 31 g ai/ha, visual injury after approx. 10 d, 0 to 100 scale, 0 no effect, 100 complete control, read-out: Plant response rating, Kochia
How it was run: as §1

[9] = tested on: barnyardgrass (Echinochloa crus-galli); assay: Test A postemergence; details: Echinochloa crus-galli, post-emergence, 240 h; for pest or weed control at 125 g/ha: 125 g ai/ha, postemergence, visual injury vs untreated controls after approx. 10 d, 0 = no effect, 100 = complete control, read-out: Barnyardgrass plant response rating (0 to 100 scale); for pest or weed control at 31 g/ha: Postemergence, 31 g ai/ha, visual injury after approx. 10 d, 0 to 100 scale, 0 no effect, 100 complete control, read-out: Plant response rating, Barnyardgrass
How it was run: as §1

[10] = tested on: blackgrass (Alopecurus myosuroides); assay: Test A postemergence; details: Alopecurus myosuroides, post-emergence, 240 h; for pest or weed control at 125 g/ha: 125 g ai/ha, postemergence, visual injury vs untreated controls after approx. 10 d, 0 = no effect, 100 = complete control, read-out: Blackgrass plant response rating (0 to 100 scale); for pest or weed control at 31 g/ha: Postemergence, 31 g ai/ha, visual injury after approx. 10 d, 0 to 100 scale, 0 no effect, 100 complete control, read-out: Plant response rating, Blackgrass
How it was run: as §1

corn (Zea mays) = assay: Test A postemergence; details: Zea mays, post-emergence, 240 h; for plant injury at 125 g/ha: 125 g ai/ha, postemergence, visual injury vs untreated controls after approx. 10 d, 0 = no effect, 100 = complete control, read-out: Corn plant response rating (0 to 100 scale); for Corn plant response rating (crop injury, 0 = no effect, 100 = complete kill) at 31 g/ha: Postemergence, 31 g ai/ha, visual injury after approx. 10 d, 0 to 100 scale, 100 complete control
How it was run: as §1

[11] = tested on: giant foxtail (Setaria faberii); assay: Test A postemergence; details: Setaria faberi, post-emergence, 240 h; for pest or weed control at 125 g/ha: 125 g ai/ha, postemergence, visual injury vs untreated controls after approx. 10 d, 0 = no effect, 100 = complete control, read-out: Foxtail, Giant plant response rating (0 to 100 scale); for pest or weed control at 31 g/ha: Postemergence, 31 g ai/ha, visual injury after approx. 10 d, 0 to 100 scale, 0 no effect, 100 complete control, read-out: Plant response rating, Foxtail, Giant
How it was run: as §1

[12] = tested on: pigweed (Amaranthus retroflexus); assay: Test A postemergence; details: Amaranthus retroflexus, post-emergence, 240 h, 125 g ai/ha, postemergence, visual injury vs untreated controls after approx. 10 d; 0 = no effect, 100 = complete control; read-out: Pigweed plant response rating (0 to 100 scale)
How it was run: as §1

[13] = tested on: ragweed (common ragweed, Ambrosia elatior); assay: Test A postemergence; details: Ambrosia artemisiifolia, post-emergence, 240 h, 125 g ai/ha, postemergence, visual injury vs untreated controls after approx. 10 d; 0 = no effect, 100 = complete control; read-out: Ragweed plant response rating (0 to 100 scale)
How it was run: as §1

[14] = tested on: ryegrass, Italian (Italian ryegrass, Lolium multiflorum); assay: Test A postemergence; details: Lolium multiflorum, post-emergence, 240 h, 125 g ai/ha, postemergence, visual injury vs untreated controls after approx. 10 d; 0 = no effect, 100 = complete control; read-out: Ryegrass, Italian plant response rating (0 to 100 scale)
How it was run: as §1

[15] = tested on: wheat (Triticum aestivum); assay: Test A postemergence; details: Triticum aestivum, post-emergence, 240 h, 125 g ai/ha, postemergence, visual injury vs untreated controls after approx. 10 d; 0 = no effect, 100 = complete control; read-out: Wheat plant response rating (0 to 100 scale)
How it was run: as §1

[16] = tested on: barnyardgrass (Echinochloa crus-galli); assay: Test B flooded paddy test; details: Echinochloa crus-galli, 250 g ai/ha, Flood; 0 to 100 scale where 0 is no effect and 100 is complete control; read-out: Barnyardgrass plant response rating
How it was run: (§2)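 Compound goes directly into floodwater once pots are flooded 3 cm above soil, targeting plants at two leaves; the water depth is then held for the test duration. Plants sit 13–15 d in a greenhouse and are rated visually, 100 denoting complete control.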

[17] = tested on: ducksalad (Heteranthera limosa); assay: Test B flooded paddy test; details: Heteranthera limosa, 250 g ai/ha, Flood; 0 to 100 scale where 0 is no effect and 100 is complete control; read-out: Ducksalad plant response rating
How it was run: as §2

rice (Oryra sativa) = assay: Test B flooded paddy test; details: Oryza sativa, 250 g ai/ha, Flood; 0 to 100 scale where 0 is no effect and 100 is complete control; read-out: Rice plant response rating
How it was run: as §2

[18] = tested on: sedge, umbrella (small-flower umbrella sedge, Cyperus difformis); assay: Test B flooded paddy test; details: Cyperus difformis, 250 g ai/ha, Flood; 0 to 100 scale where 0 is no effect and 100 is complete control; read-out: Sedge, Umbrella plant response rating
How it was run: as §2

[19] = visual injury rating, approximately 10 d

CN1C[C@H](c2ccc(C(F)F)cc2)[C@@H](C(=O)Nc2ccccc2S(C)(=O)=O)C1=O [Compound 1175]
pest or weed control at 31 g/ha (Kochia (Kochia scoparia) [1]): 20%
pest or weed control at 125 g/ha (Kochia (Kochia scoparia) [1]; approx. 10 d): 50%
pest or weed control at 31 g/ha [2]: 50%
pest or weed control at 125 g/ha ([2]; approx. 10 d): 90%
pest or weed control at 31 g/ha [3]: 70%
pest or weed control at 125 g/ha ([3]; approx. 10 d): 90%
pest or weed control at 31 g/ha [4]: 0%
pest or weed control at 125 g/ha ([4]; approx. 10 d): 40%
pest or weed control at 31 g/ha [5]: 0%
pest or weed control at 125 g/ha ([5]; approx. 10 d): 20%
pest or weed control at 31 g/ha [6]: 0%
pest or weed control at 125 g/ha ([6]; approx. 10 d): 20%
pest or weed control at 125 g/ha [7]: 40%
pest or weed control at 31 g/ha [7]: 20%
pest or weed control at 125 g/ha (Kochia (Kochia scoparia) [8]): 0%
pest or weed control at 31 g/ha (Kochia (Kochia scoparia) [8]): 0%
pest or weed control at 125 g/ha [9]: 90%
pest or weed control at 31 g/ha [9]: 50%
pest or weed control at 125 g/ha [10]: 50%
pest or weed control at 31 g/ha [10]: 0%
plant injury at 125 g/ha (corn (Zea mays)): 30%
Corn plant response rating (crop injury, 0 = no effect, 100 = complete kill) at 31 g/ha (corn (Zea mays)): 0%
pest or weed control at 125 g/ha [11]: 80%
pest or weed control at 31 g/ha [11]: 50%
pest or weed control at 125 g/ha [12]: 20%
pest or weed control at 125 g/ha [13]: 30%
pest or weed control at 125 g/ha [14]: 50%
plant injury at 125 g/ha [15]: 40%
pest or weed control at 250 g/ha [16]: 65%
pest or weed control at 250 g/ha [17]: 90%
pest or weed control at 250 g/ha (rice (Oryra sativa)): 10%
pest or weed control at 250 g/ha [18]: 0%

COc1ccc(C(F)(F)F)cc1[C@H]1CN(C)C(=O)[C@@H]1C(=O)Nc1cccc(F)c1F [Compound 1184]
pest or weed control at 31 g/ha (Kochia (Kochia scoparia) [1]): 0%
pest or weed control at 125 g/ha (Kochia (Kochia scoparia) [1]; [19]): 0%
pest or weed control at 31 g/ha [2]: 90%
pest or weed control at 125 g/ha [2, 19]: 100%
pest or weed control at 31 g/ha [3]: 80%
pest or weed control at 125 g/ha [3, 19]: 90%
pest or weed control at 31 g/ha [4]: 0%
pest or weed control at 125 g/ha [4, 19]: 0%
pest or weed control at 31 g/ha [5]: 0%
pest or weed control at 125 g/ha [5, 19]: 0%
pest or weed control at 31 g/ha [6]: 40%
pest or weed control at 125 g/ha [6, 19]: 50%
pest or weed control at 125 g/ha [7]: 20%
pest or weed control at 31 g/ha [7]: 0%
pest or weed control at 125 g/ha (Kochia (Kochia scoparia) [8]): 0%
pest or weed control at 31 g/ha (Kochia (Kochia scoparia) [8]): 0%
pest or weed control at 125 g/ha [9]: 80%
pest or weed control at 31 g/ha [9]: 70%
pest or weed control at 125 g/ha [10]: 60%
pest or weed control at 31 g/ha [10]: 30%
plant injury at 125 g/ha (corn (Zea mays)): 40%
Corn plant response rating (crop injury, 0 = no effect, 100 = complete kill) at 31 g/ha (corn (Zea mays)): 50%
pest or weed control at 125 g/ha [11]: 80%
pest or weed control at 31 g/ha [11]: 80%
pest or weed control at 125 g/ha [12]: 0%
pest or weed control at 125 g/ha [13]: 0%
pest or weed control at 125 g/ha [14]: 30%
plant injury at 125 g/ha [15]: 60%
pest or weed control at 250 g/ha [16]: 90%
pest or weed control at 250 g/ha [17]: 95%
pest or weed control at 250 g/ha (rice (Oryra sativa)): 15%
pest or weed control at 250 g/ha [18]: 0%
